{"source": "patent US20040253243A1", "about": "“Aptamer therapeutics useful in ocular pharmacotherapy” (priority 2003, published 2004)", "key": {"[1]": {"tested_on": "retinal pigmented epithelial (RPE) cells", "experiment": "RPE cell migration with PDGF", "assay_type": "cell-based", "conditions": "100 ng/ml PDGF", "text": "The graphs presented in FIG. 15E and 15F show the increasing effect of PDGF concentration on RPE cell migration."}, "human TGFβ2 [2]": {"target": "T1, human TGFβ2 (Homo sapiens, UniProt P61812)", "T1 construct": "two forms of mature TGFβ2 were generated, native and N-terminal his-tagged versions, in E. coli; made in house; host or cells: E. coli; added as soluble protein to MLEC", "T1 sequence (P61812 303-414)": "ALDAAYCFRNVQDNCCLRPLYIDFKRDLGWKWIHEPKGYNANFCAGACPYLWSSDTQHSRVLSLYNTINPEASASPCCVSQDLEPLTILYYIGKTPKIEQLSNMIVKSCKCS", "experiment": "MLEC proliferation assay (reversal of TGFβ2-mediated inhibition, BrdU)", "assay_type": "cell-based", "conditions": "for inhibition of the antiproliferative effects of TGFβ2: 50 pg/ml of TGFβ2, BrdU incorporation", "method": "(§1) MLECs were plated at 2,000 cells per well and incubated at 37° C. for 4 hours. Aptamer and TGFβ2 were added at the indicated concentrations for 16 hours at 37° C. Cell proliferation was measured using BrdU incorporation. BrdU assay was performed as recommended by the manufacturer (Roche Diagnostics).\n(§2) MLEC Assay. The mink lung epithelial cell proliferation assay is performed over two days. On day 1:1) media is aspirated off from Mink Lung Epithelial Cells (MLEC); 2) the MLEC are washed with 10 ml 1×PBS; 3) 3 ml Trypsin is added and Trypsinize for 3 min at 37° C.; 4) quench with 10 ml 0.5% FBS media; 5) spin at 1000 rpm for 3.30 min; 6) aspirate off supernatant; 7) resuspend pellet in 10 ml 0.5% FBS media; 8) Count 10 μl cell suspension; 9) adjust cell density to 80,000 cells/ml; 10) add 50 μl of cells/well to black bottomed 96-well plates (4000 cells/well); pipet up and down during plating process to avoid settling of cells and uneven plating; 11) incubate cells at 37° C. in 5% CO2 for 4 hrs to allow adherence of cells; 12) add 25 μl of aptamer (or media, or other test reagent, such as for example, an antibody), preferably the outer wells are not used for treated cells; 13) add 25 μl of TGFβ2 (typically 25 pg/ml); and 14) incubate cells at 37° C. in 5% CO2 overnight.\n(§3) On day 2:1) mix 20 μl BrdU with 2 ml 0.5% FBS media; 2) add 10 μl of BrdU mixture/well; 3) incubate cells at 37° C. in 5% CO2 for 3 hrs; 4) remove media and blot plates dry on paper towels; 5) add 200 μl/well FixDenat solution and incubate for 30 min at room temperature (RT); 6) remove FixDenat solution and blot plates dry on paper towels; 7) add 100 μl /well anti-BrdU POD solution and incubate for 90 min at RT; 8) remove anti-BrdU POD solution and blot plates dry on paper towels; 9) wash plates 3× with […] washing solution with 5 min RT incubations and blot plates dry on paper towels; 10) add 100 μl /well substrate solution and incubate for 3 min at RT in dark; and 11) read plates using PSP Luciferace 1 program on TopCount (Packard Bioscience Co., Downers Grove, Ill.)."}, "human TGFβ2 [3]": {"tested_on": "human TGFβ2", "experiment": "MLEC proliferation assay (reversal of TGFβ2-mediated inhibition, BrdU)", "assay_type": "cell-based", "conditions": "FIG. 6B", "method": "as §1, §2, §3"}, "[4]": {"tested_on": "N-terminal His tagged human TGFβ2", "experiment": "Nitrocellulose-filter binding to His-tagged TGFβ2", "conditions": "FIG. 6C; read-out: binding affinity, N-terminal His tagged human TGFβ2", "method": "A synthetic polynucleotide encoding full length human TGFβ2 mature protein was cloned into pRSET E. coli expression vector and transformed into BL21 (pLys) strain. The transformed cells were grown under conditions leading to TGFβ2 protein being expressed at high level and forming inclusion bodies. The inclusion bodies were purified and solubilized. The TGFβ2 was refolded and purified by S75 size exclusion chromatography (FIG. 4A). A His-tagged TGFβ2 was also generated by adding His6 plus 30 extra amino acids at the N terminus of TGFβ2. Mutations at positions 59 (S→T), 60 (R→K) and 94 (K→N), referred to herein as the S59T/R60K/K94N mutant, were introduced by site directed mutagenesis. Both the His-tagged and mutated TGFβ2 were expressed, refolded and purified using the same protocol as for wild type TGFβ2.\nDissociation constants for the binding of aptamers to purified human or rodent TGFβ-2 protein were determined by nitrocellulose-filter partitioning using ^32P-labeled RNA. […]\n(§4) Nitrocellulose-filter partitioning was performed on Minifold® I, 96-well Dot-Blot manifolds (Schleicher & Schuell). Protein-bound aptamer and residual free aptamer were captured, respectively, on pre-wetted Protran nitrocellulose (Schleicher & Schuell) and Hybond-P polyvinylidene difluoride (Amersham Biosciences) filters by vacuum aspiration, and quantified by PhosphorImager (Amersham Biosciences). […]"}, "mouse (NTK) TGFβ2": {"target": "T2, mouse (NTK) TGFβ2 (Homo sapiens, UniProt P61812, K396N/R362K/S361T)", "T2 construct": "A synthetic polynucleotide encoding full length human TGFβ2 mature protein was cloned into pRSET E. coli expression vector; made in house", "T2 sequence (P61812 303-414 S361T/R362K/K396N)": "T1 sequence (P61812 303-414) with S59T, R60K, K94N", "experiment": "Nitrocellulose-filter binding to mouse TGFβ2", "conditions": "FIG. 6C; read-out: binding affinity, mouse (NTK) TGFβ2", "method": "(§5) Dissociation constants for the binding of aptamers to purified human or rodent TGFβ-2 protein were determined by nitrocellulose-filter partitioning using ^32P-labeled RNA. In vitro transcribed RNA was treated with calf-intestinal alkaline phophatase (New England Biolabs) to remove 5′-triphosphates, then radio-labeled by incubation with γ-^32P-ATP and T4 polynucleotide kinase (New England Biolabs). Unincorporated label was removed by gel-filtration, and the RNAs were further purified by polyacrylamide gel electrophoresis (PAGE). Purified ^32P-labeled aptamer in water was refolded just prior to use by heating for 3 min at 95° C., followed by a 10 minute room-temperature incubation in binding buffer (50 mM Hepes, pH 7.4, 1 mM MgCl2, 1 mM CaCl2, 3 mM KCl, 140 mM NaCl, 0.1 mg/ml BSA, 0.01 mg/ml tRNA). The binding reactions (100 μL) were initiated by the addition of aptamer (≦0.1 nM) to excess TGFβ-2 protein (0.2-100 nM), followed by 10-30 minute equilibration at room temperature.\nas §4"}, "TGFβ2": {"target": "T3, TGFβ2 (Homo sapiens, UniProt P61812)", "T3 sequence (P61812 303-414 limits assumed)": "T1 sequence (P61812 303-414)", "experiment": "Nitrocellulose-filter partitioning binding of 32P-labeled aptamer to TGFβ-2 protein", "design": "A synthetic polynucleotide encoding full length human TGFβ2 mature protein was cloned into pRSET E. coli expression vector; made in house", "method": "as §5\nNitrocellulose-filter partitioning was performed on Minifold® I, 96-well Dot-Blot manifolds (Schleicher & Schuell). Protein-bound aptamer and residual free aptamer were captured, respectively, on pre-wetted Protran nitrocellulose (Schleicher & Schuell) and Hybond-P polyvinylidene difluoride (Amersham Biosciences) filters by vacuum aspiration, and quantified by PhosphorImager (Amersham Biosciences). The proportion of protein-bound aptamer at each TGFβ-2 concentration was plotted as the ratio of counts-per-minute on the Protran nitrocellulose filter (CPMNC) to the sum of CPM on the Protran and Hybond-P filters (CPMtotal). Estimates of dissociation constants (KD) were obtained from a fit of the concentration of TGFβ-2 (i.e., [TGFβ-2])-dependent data to a standard binding isotherm: CPMNC/CPMtotal=Cmax/(1+KD/[TGFβ2]total), where Cmax equals the maximum observed value of CPMNC/CPMtotal at saturating [TGFβ-2], likely reflecting the proportion of properly-folded aptamer that is competent to recognize TGFβ-2."}, "[5]": {"tested_on": "TGFβ2 in rabbit aqueous humor", "experiment": "Aqueous humor challenge assay (MLEC proliferation)", "assay_type": "cell-based", "method": "MLEC Assay. The mink lung epithelial cell proliferation assay is performed over two days. […]\nas §3\nMLECs were plated at 2,000 cells per well and incubated at 37° C. for 4 hours. […] Cell proliferation was measured using BrdU incorporation. […]"}, "[6]": {"experiment": "Pharmacokinetics via subconjunctival administration", "assay_type": "in vivo, mice", "method": "A pharmacokinetic study was performed to determine the pharmacokinetics of ARC81, ARC117 and ARC119, TGFβ2 aptamers having the sequences of SEQ ID NOs:4, 9 and 11, respectively), via subconjunctival administration in mice. These aptamers were formulated at a concentration of 10 mg/ml. Samples were collected at 0, 0.5, 1, 2, 6, 12, 24, 48 and 96 hours post-administration. FIGS. 21A, 21B and 21C show the aqueous humor and/or plasma concentration of each aptamer (in nM) through 50 hours post dose via subconjunctival administration."}, "[7]": {"conditions": "32P-labeled aptamer, nitrocellulose-filter partitioning, fit to Equation 1, read-out: Kd"}, "[8]": {"conditions": "Aq Humour, subconjunctival, 1 mg/eye bilaterally"}, "[9]": {"conditions": "PLASMA, subconjunctival, 1 mg/eye bilaterally"}, "[10]": {"conditions": "after subconjunctival administration"}}, "note": "Numbering of substitutions follows the chain as printed. Read-outs that look alike come from different tables or passages of the source. Marks after values point to notes of the source that are not given here. {3T} = T cap written 3T / [3'T]; {NH2} = amine group; m = 2'-O-methyl; r = 2'-OH (RNA); f = 2'-fluoro", "data": [{"substance": "5′-[PEG40K]-NH2-dCdAdGfCmGfUdAfCmG-PEG-dCdGTdAdCdCmGdATfUfCmA-PEG-TdGdAdAdGfCfUmG-3T-3′ [ARC128, reference compound]", "values": [{"measurement": "blocking of RPE cell migration", "setting": "[1]", "value": "has no activity"}]}, {"substance": "5′-GGAGGfUfUAfUfUAfCAGAGfUfCfUGfUAfUAGfCfUGfUAfCfUfCfC-3T-3′ (GGAGGUUAUUACAGAGUCUGUAUAGCUGUACUCC; 2'-fluoro at CU, RNA at AG, 3' {3T}, backbone not given here) [ARC77]", "values": [{"measurement": "inhibition of the antiproliferative effects of TGFβ2", "setting": "human TGFβ2 [2]", "value": "inhibit the antiproliferative effects of 50 pg/ml of TGFβ2"}, {"measurement": "IC50", "setting": "human TGFβ2 [2]; read-out: cell IC50", "value": 10, "unit": "nM"}, {"measurement": "potency against human versus rodent form of TGFβ2", "setting": "human TGFβ2 [3]", "value": "more potent against the human form of TGFβ2 than the rodent version"}, {"measurement": "Kd", "setting": "[4]", "value": "≥ 500", "unit": "nM"}, {"measurement": "Kd", "setting": "mouse (NTK) TGFβ2", "value": "80 ± 5", "unit": "nM"}, {"measurement": "Kd", "setting": "TGFβ2; [7]", "value": 3.6, "unit": "nM"}, {"measurement": "Kd", "setting": "TGFβ2; FIG. 6C, read-out: binding affinity, human wild type (WT) TGFβ2", "value": "2.5 ± 0.3", "unit": "nM"}, {"measurement": "Kd", "setting": "TGFβ2; read-out: KD", "value": 1, "unit": "nM"}]}, {"substance": "5′-NH2-mGmGmGmGfUfUAfUfUmAfCmAmGmAmGfUfCfUGfUAfUAmGfCfUmGfUmAfCfCfC-3T-3′ (GGGGUUAUUACAGAGUCUGUAUAGCUGUACCC; sugars from the 5' end mmmmffrffmfmmmmfffrfrfrmffmfmfff, 5' {NH2}, 3' {3T}, backbone not given here) [ARC81]", "values": [{"measurement": "rescue of rabbit aqueous humor-mediated inhibition of MLEC proliferation", "setting": "[5]; 1.5% rabbit aqueous humor", "value": "rescued rabbit aqueous humor-mediated inhibition of MLEC proliferation in a dose dependent manner"}, {"measurement": "inhibition of antiproliferative effects of rabbit aqueous humor", "setting": "[5]; low concentrations of rabbit aqueous humor (e.g., <10%), 1000 nM ARC81", "value": "inhibited the antiproliferative effects of low concentrations of rabbit aqueous humor"}, {"measurement": "inhibition of the antiproliferative effects of TGFβ2", "setting": "human TGFβ2 [2]", "value": "inhibit the antiproliferative effects of 50 pg/ml of TGFβ2"}, {"measurement": "AUC (0-t)", "setting": "[6]; [8]", "value": 36.0, "unit": "nM·h"}, {"measurement": "Cmax", "setting": "[6]; [8]", "value": 5.19, "unit": "nM"}, {"measurement": "MRT", "setting": "[6]; [8]", "value": "6.03* h"}, {"measurement": "TLAST", "setting": "[6]; [8]", "value": 12, "unit": "h"}, {"measurement": "tmax", "setting": "[6]; [8]", "value": 6, "unit": "h"}, {"measurement": "AUC (0-t)", "setting": "[6]; [9]", "value": 29.8, "unit": "nM·h"}, {"measurement": "Cmax", "setting": "[6]; [9]", "value": 6.44, "unit": "nM"}, {"measurement": "MRT", "setting": "[6]; [9]", "value": 3.13, "unit": "h"}, {"measurement": "TLAST", "setting": "[6]; [9]", "value": 12, "unit": "h"}, {"measurement": "Vd", "setting": "[6]; [9]", "value": 21079, "unit": "mL"}, {"measurement": "t1/2", "setting": "[6]; [9]", "value": 2.42, "unit": "h"}, {"measurement": "tmax", "setting": "[6]; [9]", "value": 1, "unit": "h"}, {"measurement": "detection in the aqueous humor", "setting": "[6]; [10]", "value": "detected in the aqueous humor"}, {"measurement": "time to enter systemic circulation", "setting": "[6]; [10]", "value": "less than 0.5 hour"}, {"measurement": "Kd", "setting": "TGFβ2; [7]", "value": 5.1, "unit": "nM"}]}]}
